Reference: ChEMBL document CHEMBL5303573, “Mapping human microbiome drug metabolism by gut bacteria and their genes” (Nature, 2019)

Experiments:
[1] = The drug is tested on Providencia stuartii strain: ATCC25827 for biotransformation. The drug concentrations were measured before and after a 12-h incubation by liquid-chromatography-coupled mass spectrometry (LC–MS); details: 2 µM
[2] = bacteroides intestinalis, 12 h, 2 µM
Description: The drug is tested on Bacteroides intestinalis strain: DSM17393 for biotransformation. The drug concentrations were measured before and after a 12-h incubation by liquid-chromatography-coupled mass spectrometry (LC–MS)

[3] = The drug is tested on Eubacterium hallii strain: DSM3353 for biotransformation. The drug concentrations were measured before and after a 12-h incubation by liquid-chromatography-coupled mass spectrometry (LC–MS); details: anaerobutyricum hallii, 2 µM
[4] = bacteroides thetaiotaomicron, 12 h, 2 µM
Description: The drug is tested on Bacteroides thetaiotaomicron strain: 3731 for biotransformation. The drug concentrations were measured before and after a 12-h incubation by liquid-chromatography-coupled mass spectrometry (LC–MS)

[5] = enterocloster bolteae, 12 h, 2 µM
Description: The drug is tested on Clostridium bolteae strain: ATCCBAA-613 for biotransformation. The drug concentrations were measured before and after a 12-h incubation by liquid-chromatography-coupled mass spectrometry (LC–MS)

[6] = The drug is tested on Ruminococcus gnavus strain: ATCC29149 for biotransformation. The drug concentrations were measured before and after a 12-h incubation by liquid-chromatography-coupled mass spectrometry (LC–MS); details: mediterraneibacter gnavus, 2 µM
[7] = The drug is tested on Anaerococcus hydrogenalis strain: DSM7454 for biotransformation. The drug concentrations were measured before and after a 12-h incubation by liquid-chromatography-coupled mass spectrometry (LC–MS); details: 2 µM
[8] = The drug is tested on Bacteroides ovatus strain: ATCC8483 for biotransformation. The drug concentrations were measured before and after a 12-h incubation by liquid-chromatography-coupled mass spectrometry (LC–MS); details: 2 µM
[9] = The drug is tested on Collinsella intestinalis strain: DSM13280 for biotransformation. The drug concentrations were measured before and after a 12-h incubation by liquid-chromatography-coupled mass spectrometry (LC–MS); details: 2 µM
[10] = The drug is tested on Bifidobacterium longum subsp. Infantis strain: CCUG52486 for biotransformation. The drug concentrations were measured before and after a 12-h incubation by liquid-chromatography-coupled mass spectrometry (LC–MS); details: 2 µM
[11] = The drug is tested on Eubacterium rectale strain: ATCC33656 for biotransformation. The drug concentrations were measured before and after a 12-h incubation by liquid-chromatography-coupled mass spectrometry (LC–MS); details: agathobacter rectalis, 2 µM
[12] = The drug is tested on Anaerotruncus colihominis strain: DSM17241 for biotransformation. The drug concentrations were measured before and after a 12-h incubation by liquid-chromatography-coupled mass spectrometry (LC–MS); details: 2 µM
[13] = akkermansia muciniphila, 12 h, 2 µM
Description: The drug is tested on Akkermansia muciniphila strain: ATCC BAA-835 for biotransformation. The drug concentrations were measured before and after a 12-h incubation by liquid-chromatography-coupled mass spectrometry (LC–MS)

[14] = The drug is tested on Bacteroides sp. WH2 strain: WH2 for biotransformation. The drug concentrations were measured before and after a 12-h incubation by liquid-chromatography-coupled mass spectrometry (LC–MS); details: bacteroides sp. wh2, 12 h, 2 µM
[15] = parabacteroides johnsonii, 12 h, 2 µM
Description: The drug is tested on Parabacteroides johnsonii strain: DSM18315 for biotransformation. The drug concentrations were measured before and after a 12-h incubation by liquid-chromatography-coupled mass spectrometry (LC–MS)

[16] = The drug is tested on Clostridium sporogenes strain: ATCC15579 for biotransformation. The drug concentrations were measured before and after a 12-h incubation by liquid-chromatography-coupled mass spectrometry (LC–MS); details: 2 µM
[17] = The drug is tested on Bacteroides finegoldii strain: DSM17565 for biotransformation. The drug concentrations were measured before and after a 12-h incubation by liquid-chromatography-coupled mass spectrometry (LC–MS); details: 2 µM
[18] = The drug is tested on Odoribacter splanchnicus strain: fecal isolate for biotransformation. The drug concentrations were measured before and after a 12-h incubation by liquid-chromatography-coupled mass spectrometry (LC–MS); details: 2 µM
[19] = The drug is tested on Coprococcus comes strain: ATCC27758 for biotransformation. The drug concentrations were measured before and after a 12-h incubation by liquid-chromatography-coupled mass spectrometry (LC–MS); type: ADME; parameters: dose 2 uM, timepoint 0 vs 12 hours; details: 2 µM
[20] = anaerostipes sp., 12 h, 2 µM
Description: The drug is tested on Anaerostipes sp. strain: fecal isolate for biotransformation. The drug concentrations were measured before and after a 12-h incubation by liquid-chromatography-coupled mass spectrometry (LC–MS)

[21] = The drug is tested on Bacteroides caccae strain: ATCC43185 for biotransformation. The drug concentrations were measured before and after a 12-h incubation by liquid-chromatography-coupled mass spectrometry (LC–MS); details: 2 µM
[22] = The drug is tested on Dorea formicigenerans strain: ATCC27755 for biotransformation. The drug concentrations were measured before and after a 12-h incubation by liquid-chromatography-coupled mass spectrometry (LC–MS); details: 2 µM
[23] = The drug is tested on Providencia rettgeri strain: DSM1131 for biotransformation. The drug concentrations were measured before and after a 12-h incubation by liquid-chromatography-coupled mass spectrometry (LC–MS); type: ADME; parameters: dose 2 uM, timepoint 0 vs 12 hours; details: 2 µM
[24] = The drug is tested on Ruminococcus torques strain: ATCC27756 for biotransformation. The drug concentrations were measured before and after a 12-h incubation by liquid-chromatography-coupled mass spectrometry (LC–MS); type: ADME; parameters: dose 2 uM, timepoint 0 vs 12 hours; details: 2 µM
[25] = limosilactobacillus reuteri cf48-3a, 12 h, 2 µM
Description: The drug is tested on Lactobacillus reuteri CF48-3A strain: BEI HM-102 for biotransformation. The drug concentrations were measured before and after a 12-h incubation by liquid-chromatography-coupled mass spectrometry (LC–MS)

[26] = The drug is tested on Ruminococcus lactaris strain: ATCC29176 for biotransformation. The drug concentrations were measured before and after a 12-h incubation by liquid-chromatography-coupled mass spectrometry (LC–MS); details: 2 µM
[27] = The drug is tested on Subdoligranulum variabile strain: DSM15176 for biotransformation. The drug concentrations were measured before and after a 12-h incubation by liquid-chromatography-coupled mass spectrometry (LC–MS); details: 2 µM
[28] = The drug is tested on Clostridium symbiosum strain: ATCC14940 for biotransformation. The drug concentrations were measured before and after a 12-h incubation by liquid-chromatography-coupled mass spectrometry (LC–MS); details: 2 µM
[29] = The drug is tested on Eubacterium ventriosum strain: ATCC27560 for biotransformation. The drug concentrations were measured before and after a 12-h incubation by liquid-chromatography-coupled mass spectrometry (LC–MS); type: ADME; parameters: dose 2 uM, timepoint 0 vs 12 hours; details: 2 µM
[30] = The drug is tested on Escherichia coli strain: BW25113 for biotransformation. The drug concentrations were measured before and after a 12-h incubation by liquid-chromatography-coupled mass spectrometry (LC–MS); details: 2 µM
[31] = The drug is tested on Enterobacter cancerogenus strain: ATCC35316 for biotransformation. The drug concentrations were measured before and after a 12-h incubation by liquid-chromatography-coupled mass spectrometry (LC–MS); details: 2 µM
[32] = The drug is tested on Bifidobacterium ruminantium strain: fecal isolate for biotransformation. The drug concentrations were measured before and after a 12-h incubation by liquid-chromatography-coupled mass spectrometry (LC–MS); details: 2 µM

Measured: Bacterial Biotransformation

CCCCCOC(=O)Nc1nc(=O)n([C@@H]2O[C@H](C)[C@@H](O)[C@H]2O)cc1F [CAPECITABINE]
Compound metabolized: [10] | [11] | [18] | [25] | [30] | [31]
Compound NOT metabolized: all other assays above
